Assays:
MKNK1 [1] = target: T1, MKNK1 (Homo sapiens, UniProt Q9BUB5, T385D); test: MKNK1 kinase high ATP assay (TR-FRET); type: biochemical; conditions: ATP final conc. 2 mM; 15 min pre-incubation; reaction time 30 min at 22°C
T1 construct: GST (N); purchased Carna Biosciences 02-145; host or cells: insect cells (baculovirus expression system)
Procedure: MKNK1-inhibitory activity at high ATP of compounds of the present invention after their preincubation with MKNK1 was quantified employing the TR-FRET-based MKNK1 high ATP assay as described in the following paragraphs.
As substrate for the kinase reaction the biotinylated peptide biotin-Ahx-[…] (C-terminus in amide form) was used, which can be purchased e.g. from the company Biosyntan (Berlin-Buch, Germany).
For the assay 50 nL of a 100fold concentrated solution of the test compound in DMSO was pipetted into a black low volume 384well microtiter plate (Greiner Bio-One, Frickenhausen, Germany), 2 µL of a solution of MKNK1 in aqueous assay buffer [50 mM HEPES pH 7.5, 5 mM magnesium chloride, 1.0 mM dithiothreitol, 0.005% (v/v) Nonidet-P40 (Sigma)] was added and the mixture was incubated for 15 min at 22°C to allow pre-binding of the test compounds to the enzyme before the start of the kinase reaction. Then the kinase reaction was started by the addition of 3 µL of a solution of adenosine-tri-phosphate (ATP, 3.3 mM => final conc. in the 5 µL assay volume is 2 mM) and substrate (0.1 µM => final conc. in the 5 µL assay volume is 0.06 µM) in assay buffer and the resulting mixture was incubated for a reaction time of 30 min at 22°C. The concentration of MKNK1 was adjusted depending of the activity of the enzyme lot and was chosen appropriate to have the assay in the linear range, typical concentrations were in the range of 0.003 µg/mL. The reaction was stopped by the addition of 5 µL of a solution of TR-FRET detection reagents (5 nM streptavidine-XL665 [Cisbio Bioassays, Codolet, France] and 1 nM anti-ribosomal protein S6 (pSer236)-antibody from Invitrogen [# 44921G] and 1 nM LANCE EU-W1024 labeled ProteinG [Perkin-Elmer, product no. AD0071]) in an aqueous EDTA-solution (100 mM EDTA, 0.1 % (w/v) bovine serum albumin in 50 mM HEPES pH 7.5).
(§1) The resulting mixture was incubated for 1 h at 22°C to allow the formation of complex between the phosphorylated biotinylated peptide and the detection reagents. Subsequently the amount of phosphorylated substrate was evaluated by measurement of the resonance energy transfer from the Eu-chelate to the streptavidine-XL. Therefore, the fluorescence emissions at 620 nm and 665 nm after excitation at 350 nm were measured in a TR-FRET reader, e.g. a Rubystar (BMG Labtechnologies, Offenburg, Germany) or a Viewlux (Perkin-Elmer). The ratio of the emissions at 665 nm and at […] was taken as the measure for the amount of phosphorylated substrate. The data were normalised (enzyme reaction without inhibitor = 0 % inhibition, all other assay components but no enzyme = 100 % inhibition).

MKNK1 [2] = target: T1, MKNK1; test: MKNK1 kinase assay (TR-FRET); type: biochemical; conditions: ATP final conc. 10 µM; 15 min pre-incubation; reaction time 45 min at 22°C
Procedure: MKNK1-inhibitory activity of compounds of the present invention was quantified employing the MKNK1 TR-FRET assay as described in the following paragraphs.
As substrate for the kinase reaction the biotinylated peptide biotin-Ahx-[…] (C-terminus in amide form) was used which can be purchased e.g. form the company Biosyntan (Berlin-Buch, Germany).
For the assay 50 nL of a 100fold concentrated solution of the test compound in DMSO was pipetted into a black low volume 384well microtiter plate (Greiner Bio-One, Frickenhausen, Germany), 2 µL of a solution of MKNK1 in aqueous assay buffer [50 mM HEPES pH 7.5, 5 mM magnesium chloride, 1.0 mM dithiothreitol, 0.005% (v/v) Nonidet-P40 (Sigma)] was added and the mixture was incubated for 15 min at 22°C to allow pre-binding of the test compounds to the enzyme before the start of the kinase reaction. Then the kinase reaction was started by the addition of 3 µL of a solution of adenosine-tri-phosphate (ATP, 16.7 µM => final conc. in the 5 µL assay volume is 10 µM) and substrate (0.1 µM => final conc. in the 5 µL assay volume is 0.06 µM) in assay buffer and the resulting mixture was incubated for a reaction time of 45 min at 22°C.
as §1, with “inhibition). […] Table 1: MKNK1 IC50s” for “inhibition).”

T1 sequence (Q9BUB5 1-424 isoform Q9BUB5-2 T344D): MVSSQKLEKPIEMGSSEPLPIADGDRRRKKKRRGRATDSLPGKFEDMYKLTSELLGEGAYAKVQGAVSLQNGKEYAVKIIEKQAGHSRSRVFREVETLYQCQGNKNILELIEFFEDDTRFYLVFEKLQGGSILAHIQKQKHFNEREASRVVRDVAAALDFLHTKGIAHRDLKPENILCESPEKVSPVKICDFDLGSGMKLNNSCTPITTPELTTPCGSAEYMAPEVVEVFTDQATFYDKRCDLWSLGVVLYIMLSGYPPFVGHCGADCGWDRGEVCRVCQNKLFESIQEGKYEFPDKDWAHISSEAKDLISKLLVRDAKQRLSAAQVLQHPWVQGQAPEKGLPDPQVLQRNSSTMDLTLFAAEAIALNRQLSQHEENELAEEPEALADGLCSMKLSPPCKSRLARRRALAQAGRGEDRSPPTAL

Structure (SMILES) | IC50 (MKNK1 [1]) [nM] | IC50 (MKNK1 [2]) [nM]
C[C@H](N)COc1ccc2ncc(-c3cc4c(F)cccc4o3)n2n1 [Example 45, (2S)-1-{[3-(4-Fluoro-1-benzofuran-2-yl)imidazo[1,2-b]pyridazin-6-yl]oxy}-propan-2-amine] | 71 | 17
N[C@H](COc1ccc2ncc(-c3cc4c(F)cccc4o3)n2n1)c1ccccc1 [Example 46, (1S)-2-{[3-(4-Fluoro-1-benzofuran-2-yl)imidazo[1,2-b]pyridazin-6-yl]oxy}-1-phenylethanamine] | 67 | 36
C[C@H](CN)Oc1ccc2ncc(-c3cc4cccc(F)c4o3)n2n1 [Example 48, (2R)-2-{[3-(7-Fluoro-1-benzofuran-2-yl)imidazo[1,2-b]pyridazin-6-yl]oxy}-propan-1-amine] | 115 | 71
Cc1ccc2oc(-c3cnc4ccc(O[C@H](C)CN)nn34)cc2c1 [Example 49] | 154 | 88
N[C@H](COc1ccc2ncc(-c3cc4ccccc4o3)n2n1)Cc1ccccc1 [Example 50, (2S)-1-{[3-(1-Benzofuran-2-yl)imidazo[1,2-b]pyridazin-6-yl]oxy}-3-phenyl-propan-2-amine] | 54 | 27
NC1(COc2ccc3ncc(-c4cc5ccccc5o4)n3n2)CC1 [Example 51, 1-({[3-(1-Benzofuran-2-yl)imidazo[1,2-b]pyridazin-6-yl]oxy}methyl)cyclo-propanamine] | 74 | 29
NCC(COc1ccc2ncc(-c3cc4ccccc4o3)n2n1)c1ccccc1 (centres unmarked) [Example 52, 3-{[3-(1-Benzofuran-2-yl)imidazo[1,2-b]pyridazin-6-yl]oxy}-2-phenylpropan-1-amine] | 30 | 17
